Three compounds from US20250361490A1, “COMPOSITION AND METHOD FOR CRYOPRESERVATION OF MITOCHONDRIA” (cellvie AG, priority 2022, published 2025) can be followed below.

SMILES strings stand for the structures.

In the assay the test system is isolated mitochondria from human cardiac fibroblast (HCF) cells. As to the kind of experiment: Mitochondrial membrane potential assay (MitoTracker Red CMXRos / MitoTracker Green FM staining). The conditions noted are these: single cryoprotectant at 5%, 10%, 20% (v/v) in trehalose-based isolation buffer; frozen on dry ice, thawed 37° C.; normalized to non-frozen control. Format: cell-based.

Method: Procedure: Isolated mitochondria in the form of pellets were resuspended in two different isolation buffers containing respectively either 300 mM sucrose or 300 mM trehalose and then frozen in 1.5 ml Eppendorf tubes by placing them either in liquid nitrogen for approximately 1 minute or on dry ice for approximately 3 minutes. For thawing, the tubes were placed in a 37° C. water bath until the entire sample was thawed, and then immediately transferred on ice.
To assess the mitochondrial membrane potential, the isolated mitochondria were resuspended either in the sucrose-containing isolation buffer or in the trehalose-containing isolation buffer at 1 mg/ml, and 15 μg of mitochondrial suspension were used for each sample. Both non-frozen mitochondria and mitochondria frozen and thawed according to procedure described under section 2.2 were stored on ice until use, e.g., stored for a period of 5 minutes to maximum 60 minutes, preferably for a few minutes (e.g., for a period of maximum 15 minutes, such as 5 minutes or 10 minutes). For Mitotracker Red CMXRos/Mitotracker Green FM staining, a labelling solution was prepared, by adding 200 nM MitoTracker Red CMxROS and 200 nM MitoTracker Green FM (Thermo Fisher) in the isolation buffer. The isolated mitochondria were then suspended in 1 ml of the labelling solution, vortexed and incubated for 15 minutes in a 37° C. incubator. Mitochondria were sedimented by centrifugation at 9500 g for 5 minutes at 4° C., washed once with the respective isolation buffer, and resuspended in the isolation buffer at a concentration of 1 mg/ml. […] MitoTracker Red or MitoTracker Green signal was quantified using Keyence BZ-800 Analyzer software, integrated brightness per image was taken for calculations and averaged between images taken from one sample.
The effect of cryoprotectant addition on maintaining integrity of the inner mitochondrial membrane was studied using MitoTracker staining assay, as described in Example 2.3. […] Alle frozen samples were thawed in a 37° C. water bath and analyzed by MitoTracker staining.

Regarding `O=C(O)[C@@H]1CCCN1` [CRYO6, L-Proline], the “integrity of the inner mitochondrial membrane (MitoTracker Red staining)” value (from here on “integrity”) is listed as “preserve mitochondria inner membrane integrity”.

Consider `OC[C@H]1O[C@@](CO)(O[C@H]2O[C@H](CO)[C@@H](O)[C@H](O)[C@H]2O)[C@@H](O)[C@@H]1O` [CRYO25, D-(+)-Sucrose], for which the “integrity” value is on record as “preserve mitochondria inner membrane integrity”.

With `O.O=C[C@H](O)[C@@H](O)[C@H](O)[C@H](O)CO` [CRYO33, D-(+)-Glucose monohydrate], the “integrity” value is given as “preserve mitochondria inner membrane integrity”.
